Molecular target: T1, rat P2X3 receptor (Rattus norvegicus, UniProt P49654)
T1 construct: expressed in transfected cells; host or cells: CHO-K1
T1 sequence (P49654 1-397): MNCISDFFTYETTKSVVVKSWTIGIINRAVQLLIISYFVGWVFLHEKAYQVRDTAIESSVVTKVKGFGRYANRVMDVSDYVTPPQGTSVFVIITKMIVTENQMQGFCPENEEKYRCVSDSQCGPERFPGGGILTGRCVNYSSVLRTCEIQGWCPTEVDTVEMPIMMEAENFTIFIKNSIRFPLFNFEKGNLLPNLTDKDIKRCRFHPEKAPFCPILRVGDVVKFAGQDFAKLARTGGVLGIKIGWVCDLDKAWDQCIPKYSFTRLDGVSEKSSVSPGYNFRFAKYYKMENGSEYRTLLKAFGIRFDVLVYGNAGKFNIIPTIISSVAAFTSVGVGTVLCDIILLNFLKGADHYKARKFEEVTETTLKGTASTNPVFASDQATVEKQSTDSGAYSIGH
Assay: P2X3 FLIPR (Fluorometric Imaging Plate Reader) assay
Assay type: cell-based
Conditions: CHO-K1 cells transfected with cloned rat P2X3, agonist α,β-meATP 1 μM, Fluo-3 AM calcium fluorescence; for IC50: read-out: P2X3 (pIC50 values for the P2X3 receptor) (converted)
Method: CHO-K1 cells were transfected with cloned rat P2X3 or human P2X2/3 receptor subunits and passaged in flasks. 18-24 hours before the FLIPR experiment, cells were released from their flasks, centrifuged, and resuspended in nutrient medium at 2.5×10^5 cells/ml. The cells were aliquoted into black-walled 96-well plates at a density of 50,000 cells/well and incubated overnight in 5% CO2 at 37° C. On the day of the experiment, cells were washed in FLIPR buffer (calcium- and magnesium-free Hank's balanced salt solution, 10 mM HEPES, 2 mM CaCl2, 2.5 mM probenecid; FB). Each well received 100 μl FB and 100 μl of the fluorescent dye Fluo-3 AM [2 μM final conc.]. After a 1 hour dye loading incubation at 37° C., the cells were washed 4 times with FB, and a final 75 μl/well FB was left in each well.
Test compounds (dissolved in DMSO at 10 mM and serially diluted with FB) or vehicle were added to each well (25 μl of a 4× solution) and allowed to equilibrate for 20 minutes at room temperature. The plates were then placed in the FLIPR and a baseline fluorescence measurement (excitation at 488 nm and emission at 510-570 nm) was obtained for 10 seconds before a 100 μl/well agonist or vehicle addition. The agonist was a 2X solution of α,β-meATP producing a final concentration of 1 μM (P2X3) or 5 μM (P2X2/3). Fluorescence was measured for an additional 2 minutes at 1 second intervals after agonist addition. A final addition of ionomycin (5 μM, final concentration) was made to each well of the FLIPR test plate to establish cell viability and maximum fluorescence of dye-bound cytosolic calcium. Peak fluorescence in response to the addition of α,β-meATP (in the absence and presence of test compounds) was measured and inhibition curves generated using nonlinear regression. PPADS, a standard P2X antagonist, was used as a positive control.

Row | P2X3 (pIC50 values for the P2X3 receptor) | IC50 [µM] | SMILES
1 | 5.35 |  | COCC(C)NC(=O)c1cc(NC(=O)c2sccc2C)cc(-c2ccc(C)cc2)c1 (centres unmarked) [Compound 14, 3-Methyl-thiophene-2-carboxylic acid [5-(2-methoxy-1-methyl-ethylcarbamoyl)-4′-methyl-biphenyl-3-yl]-amide]
2 | 5.34 |  | COCC(C)NC(=O)c1cc(NC(=O)c2cc(C)nn2C)cc(-c2ccc(C)cc2)c1 (centres unmarked) [Compound 15, 2,5-Dimethyl-2H-pyrazole-3-carboxylic acid [5-(2-methoxy-1-methyl-ethylcarbamoyl)-4′-methyl-biphenyl-3-yl]-amide]
3 | 5.4 |  | COCC(C)NC(=O)c1cc(NC(=O)c2cc(C)on2)cc(-c2ccc(C)cc2)c1 (centres unmarked) [Compound 16, 5-Methyl-isoxazole-3-carboxylic acid [5-(2-methoxy-1-methyl-ethylcarbamoyl)-4′-methyl-biphenyl-3-yl]-amide]
4 | 5.87 |  | COCC(C)NC(=O)c1cc(NC(=O)c2cscc2OC)cc(-c2ccc(C)cc2)c1 (centres unmarked) [Compound 17, 4-Methoxy-thiophene-3-carboxylic acid [5-(2-methoxy-1-methyl-ethylcarbamoyl)-4′-methyl-biphenyl-3-yl]-amide]
5 | 5.35 |  | CCC(=O)N(C)c1cc(C(=O)NC(C)COC)cc(-c2ccc(C)cc2)c1 (centres unmarked) [Compound 18, 4′-Methyl-5-(methyl-propionyl-amino)-biphenyl-3-carboxylic acid (2-methoxy-1-methyl-ethyl)-amide]
6 | 6.88 |  | CCC(=O)N(C)c1cc(C(=O)N[C@H](C)CN2CCOCC2)cc(-c2ccc(C)cc2)c1 [Compound 19, 4′-Methyl-5-(methyl-propionyl-amino)-biphenyl-3-carboxylic acid ((R)-1-methyl-2-morpholin-4-yl-ethyl)-amide]
7 | 6.05 |  | CC(=O)N(C)c1cc(C(=O)NC(C)c2cnccn2)cc(-c2ccc(C)cc2)c1 (centres unmarked) [Compound 20, 5-(Acetyl-methyl-amino)-4′-methyl-biphenyl-3-carboxylic acid (1-pyrazin-2-yl-ethyl)-amide]
8 | 7.28 |  | CCN(C(C)=O)c1cc(C(=O)NC(C)c2cnccn2)cc(-c2ccc(C)cc2)c1 (centres unmarked) [Compound 21, 5-(Acetyl-ethyl-amino)-4′-methyl-biphenyl-3-carboxylic acid (1-pyrazin-2-yl-ethyl)-amide]
9 | 6.69 |  | COCC(=O)N(C)c1cc(C(=O)NC(C)c2cnccn2)cc(-c2ccc(C)cc2)c1 (centres unmarked) [Compound 22, 5-[(2-Methoxy-acetyl)-methyl-amino]-4′-methyl-biphenyl-3-carboxylic acid (1-pyrazin-2-yl-ethyl)-amide]
10 | 6.5 |  | CCN(C(=O)COC)c1cc(C(=O)NC(C)c2cnccn2)cc(-c2ccc(C)cc2)c1 (centres unmarked) [Compound 23, 5-[Ethyl-(2-methoxy-acetyl)-amino]-4′-methyl-biphenyl-3-carboxylic acid (1-pyrazin-2-yl-ethyl)-amide]
11 | 6.31 |  | CC(=O)N(c1cc(C(=O)NC(C)c2cnccn2)cc(-c2ccc(C)cc2)c1)c1ccncn1 (centres unmarked) [Compound 24, 5-(Acetyl-pyrimidin-4-yl-amino)-4′-methyl-biphenyl-3-carboxylic acid (1-pyrazin-2-yl-ethyl)-amide]
12 | 6.16 |  | CCC(=O)N(c1cc(C(=O)NC(C)c2cnccn2)cc(-c2ccc(C)cc2)c1)c1ccncn1 (centres unmarked) [Compound 25, 4′-Methyl-5-(propionyl-pyrimidin-4-yl-amino)-biphenyl-3-carboxylic acid (1-pyrazin-2-yl-ethyl)-amide]
13 | 6.99 |  | Cc1ccc(-c2cc(C(=O)NC(C)c3cnccn3)cc(N(C(=O)C(C)C)c3ccncn3)c2)cc1 (centres unmarked) [Compound 26, 5-(Isobutyryl-pyrimidin-4-yl-amino)-4′-methyl-biphenyl-3-carboxylic acid (1-pyrazin-2-yl-ethyl)-amide]
14 |  | 4.47 | CCN(C(=O)c1cnccn1)c1cc(C(=O)NC(C)c2cnccn2)cc(-c2ccc(C)cc2)c1 (centres unmarked) [Compound 27, Pyrazine-2-carboxylic acid ethyl-[4′-methyl-5-(1-pyrazin-2-yl-ethylcarbamoyl)-biphenyl-3-yl]-amide]
15 | 5.4 |  | CCN(C(=O)c1ccncc1)c1cc(C(=O)NC(C)COC)cc(-c2ccc(C)cc2)c1 (centres unmarked) [Compound 28, N-Ethyl-N-[5-(2-methoxy-1-methyl-ethylcarbamoyl)-4′-methyl-biphenyl-3-yl]-isonicotinamide]
16 | 7.38 |  | CCN(C(=O)CC(C)C)c1cc(C(=O)NC(C)c2cnccn2)cc(-c2ccc(C)cc2)c1 (centres unmarked) [Compound 29, 5-[Ethyl-(3-methyl-butyryl)-amino]-4′-methyl-biphenyl-3-carboxylic acid (1-pyrazin-2-yl-ethyl)-amide]
17 | 7.33 |  | CCN(C(=O)CC(C)C)c1cc(C(=O)NC(C)CO)cc(-c2ccc(C)cc2)c1 (centres unmarked) [Compound 30, 5-[Ethyl-(3-methyl-butyryl)-amino]-4′-methyl-biphenyl-3-carboxylic acid (2-hydroxy-1-methyl-ethyl)-amide]
18 | 5.91 |  | CCN(C(=O)c1cccnc1)c1cc(C(=O)NC(C)c2cnccn2)cc(-c2ccc(C)cc2)c1 (centres unmarked) [Compound 31, N-Ethyl-N-[4′-methyl-5-(1-pyrazin-2-yl-ethylcarbamoyl)-biphenyl-3-yl]-nicotinamide]
19 | 8.01 |  | Cc1ccc(-c2cc(C(=O)NC(C)c3cnccn3)cc(N(C)C(=O)C(C)(C)C)c2)cc1 (centres unmarked) [Compound 32, 5-[(2,2-Dimethyl-propionyl)-methyl-amino]-4′-methyl-biphenyl-3-carboxylic acid (1-pyrazin-2-yl-ethyl)-amide]
20 | 8.3 |  | Cc1ccc(-c2cc(C(=O)NC(C)c3cnccn3)cc(N(C)C(=O)C(C)C)c2)cc1 (centres unmarked) [Compound 33, 5-(Isobutyryl-methyl-amino)-4′-methyl-biphenyl-3-carboxylic acid (1-pyrazin-2-yl-ethyl)-amide]
21 |  | 0.0107 | Cc1ccc(-c2cc(C(=O)NC(C)c3cnccn3)cc(N(C)C(=O)C3CC3)c2)cc1 (centres unmarked) [Compound 34, 5-(Cyclopropanecarbonyl-methyl-amino)-4′-methyl-biphenyl-3-carboxylic acid (1-pyrazin-2-yl-ethyl)-amide]
22 | 6.82 |  | CCN(C(=O)OCC(C)C)c1cc(C(=O)NC(C)c2cnccn2)cc(-c2ccc(C)cc2)c1 (centres unmarked) [Compound 35, Ethyl-[4′-methyl-5-(1-pyrazin-2-yl-ethylcarbamoyl)-biphenyl-3-yl]-carbamic acid isobutyl ester]
23 | 5.3 |  | Cc1ccc(-c2cc(C(=O)NC(C)c3cnccn3)cc(N(C)C(=O)c3snnc3C)c2)cc1 (centres unmarked) [Compound 36, 4-Methyl-[1,2,3]thiadiazole-5-carboxylic acid methyl-[4′-methyl-5-(1-pyrazin-2-yl-ethylcarbamoyl)-biphenyl-3-yl]-amide]

Source: patent US9505726B2, “Substituted biphenyl amides as P2X3 and P2X2/3 antagonists” (Roche Palo Alto LLC, priority 2009, dated 2016)
